Results: patent US11903917B2, “MEK-inhibitor for the treatment of viral and bacterial infections” (priority 2017, dated 2024)

Tested on: A549 cells infected with influenza virus (IV) and S. aureus 6850
Assay: Example 8: cytopathic effect in A549 cells infected with influenza virus and S. aureus 6850, light microscopy
Type: cell-based, human
Settings: 10 μM, until 24 h p.i., super-infection
Description: Influenza virus (IV) infection results in enhanced expression of antiviral cytokines, most importantly type I IFNs that activate critical downstream antiviral responses and may also potentiate subsequent bacterial infections. […] Specifically, A549 cells were pre-treated for 1 h with 10 μM of the specific MEK-inhibitor PD-0184264 or DMSO as solvent control. Afterwards, cells were rinsed with PBS and infected with influenza virus (IV) (MOI as indicated) for 30 min at 37° C., 5% CO2. Subsequently, cells were washed with PBS and infected with S. aureus 6850 (MOI as indicated) in the presence or absence of the inhibitor for 3 h. To avoid bacterial over-growth, an antibiotic wash step with lysostaphin (2 μg/mL) was performed for 20 min at 37° C. to remove not-internalized bacteria. Then, cells were washed once and were further incubated until 24 h p.i. in the presence of the inhibitor or solvent. At the end of the incubation period, the cell monolayer was analyzed via light microscopy.

For `O=C(O)c1ccc(F)c(F)c1Nc1ccc(I)cc1Cl` [PD-0184264, 2-(2-chloro-4-iodophenylamino)-N-3,4-difluoro benzoic acid], the “cytopathic effect (CPE)” value was “completely abolished”.
